In US20150105252A1, “SUBSTITUTED PYRAZOLES AS HERBICIDES” (E I DU PONT DE NEMOURS AND COMPANY, priority 2013, published 2015):

Key:
[1] = test system: wheat, winter; assay: Test D postemergence; assay type: in vivo, Triticum aestivum; details: scale 0 to 100
Text: (§1) Seeds of plant species selected from bluegrass (annual bluegrass, Poa annua), blackgrass (Alopecurus myosuroides), canarygrass (littleseed canarygrass, Phalaris minor), chickweed (common chickweed, Stellaria media), galium (catchweed bedstraw, Galium aparine), bromegrass, downy (downy bromegrass, Bromus tectorum), field poppy (Papaver rhoeas), field violet (Viola arvensis), foxtail, green (green foxtail, Setaria viridis), deadnettle (henbit deadnettle, Lamium amplexicaule), ryegrass, Italian (Italian ryegrass, Lolium multiflorum), kochia (Kochia scoparia), lambsquarters (Chenopodium album), oilseed rape (Brassica napus), pigweed (redroot pigweed, Amaranthus retroflexus), chamomile (scentless chamomile, Matricaria inodora), speedwell (bird's-eye speedwell, Veronica persica), barley, spring (spring barley, Hordeum vulgare), wheat, spring (spring wheat, Triticum aestivum), buckwheat, wild (wild buckwheat, Polygonum convolvulus), mustard, wild (wild mustard, Sinapis arvensis), oat, wild (wild oat, Avena fatua), radish, wild (wild radish, Raphanus raphanistrum), windgrass (Apera spica-venti), Russian thistle (Salsola kali), barley, winter (winter barley, Hordeum vulgare), and wheat, winter (winter wheat, Triticum aestivum) were planted into a silt loam soil and treated preemergence with test chemicals formulated in a non-phytotoxic solvent mixture which included a surfactant.
(§2) At the same time, these species were planted in pots containing Redi-Earth® planting medium (Scotts Company, 14111 Scottslawn Road, Marysville, Ohio 43041) comprising spaghnum peat moss, vermiculite, wetting agent and starter nutrients and treated with postemergence applications of the test chemicals formulated in the same manner. Plants ranged in height from 2 to 18 cm (1- to 4-leaf stage). Treated plants and controls were maintained in a controlled growth environment for 14 to 21 days after which time all species were compared to controls and visually evaluated. Plant response ratings, summarized in Table D, are based on a scale of 0 to 100 where 0 is no effect and 100 is complete control. A dash (-) response means no test result.

[2] = test system: wheat, spring; assay: Test D postemergence; assay type: in vivo, Triticum aestivum; details: scale 0 to 100
Text: as §1, §2

[3] = test system: oat, wild; assay: Test D postemergence; assay type: in vivo, Avena fatua; details: scale 0 to 100
Text: as §1, §2

[4] = test system: speedwell; assay: Test D postemergence; assay type: in vivo, Veronica persica; details: scale 0 to 100
Text: as §1, §2

[5] = test system: kochia; assay: Test D preemergence; assay type: in vivo, Kochia scoparia; details: for Plant response rating, Kochia: Preemergence, scale 0 to 100
Text: as §1, §2

[6] = test system: canarygrass; assay: Test D preemergence; assay type: in vivo, Phalaris minor; details: for Plant response rating, Canarygrass: Preemergence, scale 0 to 100
Text: as §1, §2

[7] = test system: deadnettle; assay: Test D preemergence; assay type: in vivo, Lamium amplexicaule; details: for Plant response rating, Deadnettle: Preemergence, scale 0 to 100
Text: as §1, §2

[8] = test system: mustard, wild; assay: Test D preemergence; assay type: in vivo, Sinapis arvensis; details: for Plant response rating, Mustard, Wild: Preemergence, scale 0 to 100
Text: as §1, §2

[9] = test system: lambsquarters; assay: Test D preemergence; assay type: in vivo, Chenopodium album; details: for Plant response rating, Lambsquarters: Preemergence, scale 0 to 100
Text: as §1, §2

[10] = test system: barley, spring; assay: Test D postemergence; assay type: in vivo, Hordeum vulgare; details: scale 0 to 100
Text: as §1, §2

[11] = test system: barley, winter; assay: Test D postemergence; assay type: in vivo, Hordeum vulgare; details: scale 0 to 100
Text: as §1, §2

[12] = test system: foxtail, green; assay: Test D postemergence; assay type: in vivo, Setaria viridis; details: scale 0 to 100
Text: as §1, §2

[13] = test system: ryegrass, Italian; assay: Test D preemergence; assay type: in vivo, Lolium multiflorum; details: for Plant response rating, Ryegrass, Italian: Preemergence, scale 0 to 100
Text: as §1, §2

[14] = test system: bromegrass, downy; assay: Test D postemergence; assay type: in vivo, Bromus tectorum; details: scale 0 to 100
Text: as §1, §2

[15] = test system: field poppy; assay: Test D postemergence; assay type: in vivo, Papaver rhoeas; details: scale 0 to 100
Text: as §1, §2

[16] = test system: buckwheat, wild; assay: Test D preemergence; assay type: in vivo, Polygonum convolvulus; details: for Plant response rating, Buckwheat, Wild: Preemergence, scale 0 to 100
Text: as §1, §2

[17] = test system: lambsquarters; assay: Test D postemergence; assay type: in vivo, Chenopodium album; details: scale 0 to 100
Text: as §1, §2

[18] = 16 g ai/ha, taken as preemergence

Cc1cc(C(=O)NCC(F)(F)F)nn1Cc1ccnc(C(F)(F)F)c1 [Compound 74]
75: Plant response rating, Speedwell ([4]; Postemergence, 16 g ai/ha) | Speedwell plant response rating ([4]; Postemergence, 125 g ai/ha) | Field Poppy plant response rating ([15]; Postemergence, 31 g ai/ha) | Lambsquarters plant response rating ([17]; postemergence, 62 g ai/ha)
35: Plant response rating, Buckwheat, Wild ([16]; 31 g ai/ha)
5: Wheat, Spring plant response rating ([2]; Postemergence, 125 g ai/ha) | Oat, Wild plant response rating ([3]; Postemergence, 31 g ai/ha) | Oat, Wild plant response rating ([3]; Postemergence, 125 g ai/ha) | Oat, Wild plant response rating ([3]; postemergence, 62 g ai/ha) | Plant response rating, Canarygrass ([6]; 125 g ai/ha) | Plant response rating, Deadnettle ([7]; 31 g ai/ha) | Barley, Winter plant response rating ([11]; Postemergence, 125 g ai/ha)
70: Speedwell plant response rating ([4]; postemergence, 62 g ai/ha) | Plant response rating, Lambsquarters ([17]; Postemergence, 16 g ai/ha) | Lambsquarters plant response rating ([17]; Postemergence, 31 g ai/ha)
60: Speedwell plant response rating ([4]; Postemergence, 31 g ai/ha)
20: Plant response rating, Deadnettle ([7]; 125 g ai/ha) | Plant response rating (scale 0 to 100), Lambsquarters [9, 18] | Plant response rating, Lambsquarters ([9]; 62 g ai/ha) | Field Poppy plant response rating ([15]; Postemergence, 125 g ai/ha)
10: Plant response rating, Deadnettle ([7]; 62 g ai/ha) | Foxtail, Green plant response rating ([12]; Postemergence, 31 g ai/ha) | Plant response rating, Field Poppy ([15]; Postemergence, 16 g ai/ha)
85: Plant response rating, Kochia ([5]; 31 g ai/ha) | Plant response rating, Lambsquarters ([9]; 125 g ai/ha) | Lambsquarters plant response rating ([17]; Postemergence, 125 g ai/ha)
65: Plant response rating, Buckwheat, Wild ([16]; 125 g ai/ha)
0: Plant response rating, Wheat, Winter ([1]; Postemergence, 16 g ai/ha) | Wheat, Winter plant response rating ([1]; Postemergence, 31 g ai/ha) | Wheat, Winter plant response rating ([1]; Postemergence, 125 g ai/ha) | Wheat, Winter plant response rating ([1]; postemergence, 62 g ai/ha) | Plant response rating, Wheat, Spring ([2]; Postemergence, 16 g ai/ha) | Wheat, Spring plant response rating ([2]; Postemergence, 31 g ai/ha) | Wheat, Spring plant response rating ([2]; postemergence, 62 g ai/ha) | Plant response rating, Oat, Wild ([3]; Postemergence, 16 g ai/ha) | Plant response rating (scale 0 to 100), Canarygrass [6, 18] | Plant response rating, Canarygrass ([6]; 31 g ai/ha) | Plant response rating, Canarygrass ([6]; 62 g ai/ha) | Plant response rating (scale 0 to 100), Deadnettle [7, 18] | Barley, Spring plant response rating ([10]; Postemergence, 16 g ai/ha) | Barley, Spring plant response rating ([10]; Postemergence, 31 g ai/ha) | Barley, Spring plant response rating ([10]; Postemergence, 125 g ai/ha) | Barley, Spring plant response rating ([10]; postemergence, 62 g ai/ha) | Barley, Winter plant response rating ([11]; Postemergence, 16 g ai/ha) | Barley, Winter plant response rating ([11]; Postemergence, 31 g ai/ha) | Barley, Winter plant response rating ([11]; postemergence, 62 g ai/ha) | Plant response rating, Foxtail, Green ([12]; Postemergence, 16 g ai/ha) | Plant response rating (scale 0 to 100), Ryegrass, Italian [13, 18] | Plant response rating, Ryegrass, Italian ([13]; 31 g ai/ha) | Plant response rating, Ryegrass, Italian ([13]; 62 g ai/ha) | Plant response rating, Ryegrass, Italian ([13]; 125 g ai/ha) | Plant response rating, Bromegrass, Downy ([14]; Postemergence, 16 g ai/ha) | Bromegrass, Downy plant response rating ([14]; Postemergence, 31 g ai/ha) | Bromegrass, Downy plant response rating ([14]; Postemergence, 125 g ai/ha) | Bromegrass, Downy plant response rating ([14]; postemergence, 62 g ai/ha)
80: Plant response rating, Mustard, Wild ([8]; 125 g ai/ha)
50: Plant response rating (scale 0 to 100), Kochia [5, 18] | Plant response rating, Lambsquarters ([9]; 31 g ai/ha)
15: Plant response rating (scale 0 to 100), Mustard, Wild [8, 18] | Foxtail, Green plant response rating ([12]; postemergence, 62 g ai/ha)
100: Plant response rating, Kochia ([5]; 62 g ai/ha) | Plant response rating, Kochia ([5]; 125 g ai/ha)
30: Field Poppy plant response rating ([15]; postemergence, 62 g ai/ha)
45: Plant response rating, Buckwheat, Wild ([16]; 62 g ai/ha)
25: Plant response rating, Mustard, Wild ([8]; 31 g ai/ha) | Plant response rating, Mustard, Wild ([8]; 62 g ai/ha) | Plant response rating (scale 0 to 100), Buckwheat, Wild [16, 18]
40: Foxtail, Green plant response rating ([12]; Postemergence, 125 g ai/ha)
